Test results taken from US20050267169A1, “Watersoluble prodrugs of propofol” (priority 2002, published 2005).
In brackets after ≈: the same amount, converted by molar mass. Structures can show the parent of a compound that is named as a salt. Marks after values point to notes of the source that are not given here.

Tests used:
[1] = Chemical hydrolysis in 0.05 M phosphate buffers at 37° C.; assay type: physicochemical; conditions: phosphate buffer, pH 7.4, 0.05 M phosphate buffer pH 7.4, 37° C.; for half-life: read-out: Half-lives at 37° C., pH 7.4 buffer (converted)
Experimental: The hydrolysis of the propofol esters 6a-d was studied in aqueous buffer solutions (0.05 M phosphate buffers; ionic strength of 0.5 maintained by adding a calculated amount of KCl) at pH values of 4, 6, and 7.4 and temperature of 37±0.2° C. The reactions were initiated by adding 100 μl of a stock solution of the ester (13 mg/mL methanol) to 20 mL of the buffer solution preheated at 37° C., in screw-capped test tubes (final concentration about 2.0×10^−4 M). The solutions were kept in a water bath at a constant temperature, and at appropriate intervals aliquots of 20 μL were withdrawn and analyzed by HPLC. Pseudo-first-order rate constants for the hydrolysis were determined from the slopes of linear plots of the logarithm of residual propofol ester against time.
The kinetics of hydrolysis of the derivatives 6a-d were determined in 0.05 M phosphate buffers at pHs 4.0, 6.0 and 7.4 at 37° C. as well as in rat serum solution and in the presence of porcine liver esterase.

[2] = Solubility in deionized water at 25° C.; assay type: physicochemical; conditions: 72 h equilibration; for solubility at 72 h: thermodynamic from solid, read-out: Solubility (mg/mL) in deionized water
Experimental: The resulting mixture was vortexed for 10 min and then mechanically shaken in a thermostatic bath shaker (100 rpm) for 72 h to attain equilibrium. Next, the mixture was filtered through a 0.45 μm membrane filter (Millipore®, cellulose acetate) and an aliquot was diluted with an appropriate amount of water and analyzed for the aminoacid ester prodrug content spectrophotometrically at 210 nm. All of the manipulations were made without removal of the test tubes from the water bath, using thermostated pipettes, syringes, and buffer solutions. In Table II, as shown below, solubility data is compared with the data previously determined for propofol derivatives 2a-c (Trapani G. Latrofa A, Franco M, Lopedota A, Maciocco E, Liso G. 1998. Water-soluble salts of amino acid esters of the anesthetic agent propofol. Int. J. Pharm. 175: 195-204.).

GABAA receptor = experiment: In vitro [35S]TBPS binding assay, unwashed rat cortical membranes; conditions: for IC50: unwashed rat brain (cortical) membranes
Experimental: The data is expressed as a percentage of binding measured in the presence of solvent and are means of two experiments.
Rats were killed by decapitation and their brains rapidly removed on ice. The cerebral cortex was dissected out and homogenized in 50 volumes of ice-cold 50 mM Tris-citrate buffer (pH 7.4 at 25° C.) containing 100 mM CaCl2 using a Polytron PT 10 (setting 5, for 20 sec) and centrifuged at 20.000×g for 20 min. The resulting pellet was resuspended in 50 volumes of 50 mM Tris-citrate buffer (pH 7.4 at 25° C.) and used for the assay. [^35S]TBPS binding was determined in a final volume of 500 μL consisting of. 200 μL of tissue homogenate (0.20-0.25 mg protein), 50 μL of [^35S]TBPS (final assay concentration of 1 nM), 50 μl 2 M NaCl, 50 μL of drugs or solvent and buffer to volume. Incubations (25° C.) were initiated by addition of tissue and terminated 90 min later by a rapid filtration through glass-fiber filter strips (Whatman GF/B, Clifton, N.J.), which were rinsed twice with a 4 mL portion of ice-cold Tris-citrate buffer using a Cell Harvester filtration manifold (model M-24m Brandel, Gaithersburg, Md.). Filter bound radioactivity was quantitated by liquid scintillation spectrometry. […] Protein content was determined by the method of Lowry^20 using bovine serum albumin as a standard.

[3] = Hydrolysis in phosphate buffer containing 50% rat serum at 37° C.; assay type: in vitro ADME; conditions: for half-life: 50% rat serum in phosphate buffer, 50% rat serum in pH 7.4 phosphate buffer, read-out: Half-lives at 37° C., 50% rat serum (converted); for Cleaved quantitatively to the parent drug in rat serum: rat serum solution
Experimental: Each reaction were initiated by adding 100 μL of the methanolic stock solution of compound under examination to 1.6 mL of preheated serum solution (final concentration about 1×10^−3 M) and the mixture was maintained in water bath at 37° C. At appropriate times, 100 μL samples were withdrawn and added to 500 μL of cold acetonitrile in order to deproteinize the serum. After mixing and centrifugation (10 min at 4000 rpm), 20 μL of the clear supematant were filtered through 0.2 μm membrane filter (Waters, PTFE 0.2 μm) and analyzed by HPLC.

porcine liver esterase = experiment: Hydrolysis in the presence of porcine liver esterase; assay type: in vitro ADME; conditions: for half-life: pig, porcine liver esterase, read-out: Half-lives at 37° C., Porcine liver esterase (13 U/mL) (converted); for half-life / Cleaved quantitatively to the parent drug in porcine liver esterase solution: 37° C.
Text: Hydrolysis of compounds 6a-d in the presence of porcine liver esterase was followed using a reported procedure (Bonina F P, Arenare L, Palagiano F, Saija A, Nava F, Trombetta D, De Caprariis P. 1998. Synthesis, stability, and pharmacological evaluation of nipecotic acid prodrugs. J. Pharm. Sci. 8: 561-567.).

[4] = system: pentylenetetrazole-induced seizures; experiment: Anticonvulsant activity against pentylenetetrazole-induced seizures; assay type: in vivo, rat; conditions: for Anticonvulsant activity, No. of rats protected/tested: pentylenetetrazole 55 mg/kg i.p.
Experimental: The anticonvulsant activity against pentylenetetrazole-induced seizures (55 mg/kg) was measured.

righting reflex = experiment: Anesthetic activity: loss of righting reflex; assay type: in vivo, rat; conditions: rats, i.p.; propofol and Diprivan 60 mg/kg, 6a 105 mg/kg (equimolar); mean ± s.e.m.
Experimental: The loss and reestablishment of righting responses, time of anesthesia induction, and sleeping time were also assessed. Rats (five per group) were treated with propofol and Diprivan®, both at a dose of 60 mg/kg, and an equimolar dose of compound 6a (105 mg/kg) and were continuously monitored for the loss of righting reflex (onset and duration). Propofol and its derivative 6a were dissolved in saline with a drop of Tween 80 per 5 mL and administered intraperitoneally in a volume of 0.3 mL per 100 g of body mass. Anesthesia induction (sleep onset) was defined as the time from drug administration to loss of righting reflex, whereas the sleeping time was the time from the loss of the righting reflex until the animals were plantigrade on all four legs. The significance of differences in behavioral data were analyzed by the ANOVA test.

[5] = biological target: T1, human α1β2γ2 GABAA receptors (Homo sapiens, UniProt P14867+P18507+P47870); experiment: Voltage-clamp electrophysiology in Xenopus laevis oocytes; assay type: cell-based; conditions: GABA EC20 (2-10 μM); for Effect on GABA-evoked chloride currents: concentration-dependent
T1 construct: expressed in transfected cells; host or cells: Xenopus laevis oocytes (nuclear injection of cDNAs in pCDM8)
Experimental: Values are expressed as mean (6-13 different oocytes)±s.e.m. percentage of the potentiation of the control response to GABA (EC20, 2-10 μM).
Complementary DNAs encoding the human α1, β2, and γ2 GABAA receptor subunits were subcloned into the pCDM8 expression vector (Invitrogen, San Diego, Calif.). The cDNAs were purified with the Promega Wizard Plus Miniprep DNA Purification System (Madison, Wis.) and then resuspended in sterile distilled water, divided into portions, and stored at −20° C. until used for injection. Stage V and VI oocytes were manually isolated from sections of Xenopus laevis ovary, placed in modified Barth's saline (MBS) containing 88 mM NaCl, 1 mM KCl, 10 mM Hepes-NaOH buffer (pH 7.5), 0.82 mM MgSO4, 2.4 mM NaHCO3, 0.91 mM CaCl2, and 0.33 mM Ca(NO3)2 and treated with 0.5 mg/mL of collagenase Type IA (Sigma) in collagenase buffer (83 mM NaCl, 2 mM KCl, 1 mM MgCl2, 5 mM Hepes-NaOH buffer, pH 7.5) for 10 min at room temperature, to remove the follicular layer. A mixture of GABAA receptor α1, β2, and γ2 subunit cDNAs (1.5 ng/30 nL) was injected into the oocyte nucleus using a 10 μL glass micropipette (10-15 μm tip diameter). The injected oocytes were cultured at 19° C. in sterile MBS supplemented with streptomycin (10 μg/mL), penicillin (10 U/mL), gentamicin (50 μg/mL), 0.5 mM theophylline, and 2 mM sodium pyruvate. Electrophysiological recordings began approximately 24 h following cDNA injection. Oocytes were placed in a 100-μL rectangular chamber and continuously perfused with MBS solution at a flow rate of 2 mL/min at room temperature. The animal pole of oocytes was impaled with two glass electrodes (0.5 to 3 MΩ) filled with filtered 3 M KCl and the voltage was clamped at −70 mV with an Axoclamp 2-B amplifier (Axon Instruments, Burlingame, Calif.). Currents were continuously recorded on a strip-chart recorder. Resting membrane potential usually ranged from −30 to −50 mV. Drugs were perfused for 20 s (7-10 s were required to reach equilibrium in the recording chamber). Intervals of 5 to 10 min were allowed between drug applications.

[6] = unwashed rat cortical membranes
[7] = propofol 40 mg/kg i.p. or equimolar dose

T1 sequence (P14867 28-456): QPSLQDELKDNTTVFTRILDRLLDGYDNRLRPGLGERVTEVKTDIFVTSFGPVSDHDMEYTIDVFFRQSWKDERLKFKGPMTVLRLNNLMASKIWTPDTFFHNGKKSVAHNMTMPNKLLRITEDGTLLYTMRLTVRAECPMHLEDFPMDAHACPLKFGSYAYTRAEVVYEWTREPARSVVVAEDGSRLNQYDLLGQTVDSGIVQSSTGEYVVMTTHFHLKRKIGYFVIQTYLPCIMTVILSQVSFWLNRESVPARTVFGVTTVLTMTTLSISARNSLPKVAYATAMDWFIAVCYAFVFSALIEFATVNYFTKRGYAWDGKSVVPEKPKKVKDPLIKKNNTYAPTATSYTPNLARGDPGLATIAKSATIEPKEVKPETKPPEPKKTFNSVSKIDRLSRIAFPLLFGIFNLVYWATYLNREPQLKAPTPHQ
T1 sequence (P47870 25-512 limits assumed): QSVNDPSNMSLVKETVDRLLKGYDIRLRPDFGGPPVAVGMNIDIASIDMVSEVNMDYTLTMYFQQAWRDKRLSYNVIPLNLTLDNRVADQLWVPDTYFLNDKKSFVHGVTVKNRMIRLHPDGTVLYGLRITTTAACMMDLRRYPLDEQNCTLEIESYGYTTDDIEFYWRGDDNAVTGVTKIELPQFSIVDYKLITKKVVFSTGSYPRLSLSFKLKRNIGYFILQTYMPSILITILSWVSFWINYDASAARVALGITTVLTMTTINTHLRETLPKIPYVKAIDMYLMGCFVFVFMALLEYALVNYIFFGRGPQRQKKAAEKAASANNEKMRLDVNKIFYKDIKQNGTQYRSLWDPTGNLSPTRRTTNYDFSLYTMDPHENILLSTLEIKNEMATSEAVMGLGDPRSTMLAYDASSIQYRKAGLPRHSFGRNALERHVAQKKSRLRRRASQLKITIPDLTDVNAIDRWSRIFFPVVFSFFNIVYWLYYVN
T1 sequence (P18507 40-475): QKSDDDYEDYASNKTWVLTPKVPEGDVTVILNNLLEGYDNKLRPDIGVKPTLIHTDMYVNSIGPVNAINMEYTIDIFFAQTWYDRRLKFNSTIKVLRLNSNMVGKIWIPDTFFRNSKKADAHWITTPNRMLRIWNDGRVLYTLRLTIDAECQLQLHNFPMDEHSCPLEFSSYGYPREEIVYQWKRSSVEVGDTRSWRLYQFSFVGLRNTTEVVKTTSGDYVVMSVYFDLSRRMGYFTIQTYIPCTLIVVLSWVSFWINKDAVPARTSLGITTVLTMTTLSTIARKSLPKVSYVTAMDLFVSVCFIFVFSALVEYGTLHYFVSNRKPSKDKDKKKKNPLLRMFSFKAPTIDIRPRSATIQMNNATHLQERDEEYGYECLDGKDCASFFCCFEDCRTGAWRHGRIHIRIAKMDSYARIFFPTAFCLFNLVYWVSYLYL

Row | SMILES | half-life [1] [min] | solubility at 72 h [2] [mg/mL] | IC50 (GABAA receptor) [µM] | half-life [3] [min] | Cleaved quantitatively to the parent drug in rat serum [3] | half-life (porcine liver esterase; 13 U/mL) [min] | Cleaved quantitatively to the parent drug in porcine liver esterase solution (porcine liver esterase) | half-life at 48 h ([1]; read-out: Half-lives at 37° C., pH 7.4 buffer (stability class)) [min] | Doses at which [35S]TBPS binding is reduced (GABAA receptor; [6]) | Anticonvulsant activity, No. of rats protected/tested [4, 7] | Protection of animals against pentylenetetrazole-induced convulsions [4, 7] | Loss of righting reflex, LRR, Duration (righting reflex) [s] | Loss of righting reflex, LRR, Onset (righting reflex) | Concentration of maximal effect on GABA-evoked chloride currents [5] [µM] | Effect on GABA-evoked chloride currents [5] | IC50 (GABAA receptor; hydrochloride) [µM] | Protection of animals against pentylenetetrazole-induced convulsions ([4]; dose equimolar to 40 mg/kg propofol, i.p.) [%] | Solubility (mg/mL) in deionized water [2] [mg/mL] | Effect on [35S]TBPS binding (GABAA receptor; [6]) | Half-lives at 37° C., Porcine liver esterase (13 U/mL) (porcine liver esterase; 13 U/mL) [h]
1 | CC(C)c1cccc(C(C)C)c1OC(=O)C1CCCCN1 (racemic) [Compound 6b, propofol pipecolinate] | 420 | 13.4 (≈ 46.3 mM) | 39.5 | 2.5 | cleaved quantitatively | 13 | cleaved quantitatively |  |  |  |  |  |  |  |  |  |  |  |  | 
2 | CC(C)c1cccc(C(C)C)c1OC(=O)C1CCCNC1 (racemic) [Compound 6c] |  | 525 (≈ 1810 mM) | 152 | 360 | not | 180 | not | > 2880 | higher than 100 μM |  |  |  |  |  |  |  |  |  |  | 
3 | CC(C)c1cccc(C(C)C)c1O [Compound 1, 2,6-diisopropylphenol, reference compound] |  | ~0.15 (≈ 0.841 mM) | 4.17 |  |  |  |  |  |  | 10/10 | protected completely | 2245 ± 252 | 114.4 ± 9.5 s |  |  |  |  |  |  | 
4 | CC(C)c1cccc(C(C)C)c1OC(=O)[C@@H]1CCCN1 [Compound 6a, 2.6-diisopropylphenyl pirrolidin-2-carboxylate hydrochloride] | 360 | 350 |  | 17 | cleaved quantitatively | 17 | cleaved quantitatively |  |  | 10/10 | protected completely | 2403 ± 592 | 162.7 ± 4.3^c,d sec | 50 | enhanced | 31.7 |  |  |  | 
5 | CC(C)c1cccc(C(C)C)c1OC(=O)C1CCNCC1 [Compound 6d, propofol isonipecotate] |  |  |  |  |  |  | not |  |  | 6/10 |  |  |  | 100 | diminished |  | 60 | 29.7 (≈ 103 mM) | increase of [^35S]TBPS binding | 45
